Reference: ChEMBL document CHEMBL1201861, “Genomics of Drug Sensitity in Cancer screening data, Wellcome Trust Sanger Institute”

Experiments:
Experiment in all cases: cells
[1] = system: D-502MG; type: functional, cell-based, Homo sapiens; details: Homo sapiens, D-502MG
Description: SANGER: Inhibition of human D-502MG cell growth in a cell viability assay.

[2] = system: DEL; type: functional, cell-based, Homo sapiens; details: Homo sapiens, DEL;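 note: growth inhibition of the human DEL cell line, read out with a cell viability assay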
Description: SANGER: Inhibition of human DEL cell growth in a cell viability assay.

[3] = system: DMS-114; type: functional, cell-based, Homo sapiens; details: Homo sapiens, DMS-114
[4] = system: DOHH-2; type: functional, cell-based, Homo sapiens; details: Homo sapiens, DOHH-2;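 note: growth inhibition of human DOHH-2 cells, read out with a cell viability assay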
Description: SANGER: Inhibition of human DOHH-2 cell growth in a cell viability assay.

[5] = system: EM-2; type: functional, cell-based, Homo sapiens; details: Homo sapiens, EM-2;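 note: growth inhibition of EM-2 cells, read out with a cell viability assay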
Description: SANGER: Inhibition of human EM-2 cell growth in a cell viability assay.

[6] = system: ES3; type: functional, cell-based, Homo sapiens; details: Homo sapiens, ES3;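 note: growth inhibition of ES3 cells, read out with a cell viability assay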
Description: SANGER: Inhibition of human ES3 cell growth in a cell viability assay.

[7] = system: ETK-1; type: functional, cell-based, Homo sapiens; details: Homo sapiens, ETK-1;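 note: growth inhibition of human ETK-1 cells, read out with a cell viability assay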
Description: SANGER: Inhibition of human ETK-1 cell growth in a cell viability assay.

[8] = system: EW-11; type: functional, cell-based, Homo sapiens; details: Homo sapiens, EW-11;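 note: growth inhibition of human EW-11 cells, measured with a cell viability assay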
Description: SANGER: Inhibition of human EW-11 cell growth in a cell viability assay.

[9] = system: EW-13; type: functional, cell-based, Homo sapiens; details: Homo sapiens, EW-13;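 note: growth inhibition of EW-13 cells, read out with a cell viability assay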
Description: SANGER: Inhibition of human EW-13 cell growth in a cell viability assay.

[10] = system: EW-3; type: functional, cell-based, Homo sapiens; details: Homo sapiens, EW-3;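 note: cell viability assay read-out, IC50 reflects inhibition of growth of the EW-3 cells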
Description: SANGER: Inhibition of human EW-3 cell growth in a cell viability assay.

[11] = system: HCC 2998; type: functional, cell-based, Homo sapiens; details: Homo sapiens, HCC 2998;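 note: growth inhibition of human HCC2998 cells, measured with a cell viability read-out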
Description: SANGER: Inhibition of human HCC2998 cell growth in a cell viability assay.

[12] = system: HCE-T; type: functional, cell-based, Homo sapiens; details: Homo sapiens, HCE-T;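 note: cell viability assay read-out, reporting inhibition of HCE-T cell growth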
Description: SANGER: Inhibition of human HCE-T cell growth in a cell viability assay.

[13] = system: HH; type: functional, cell-based, Homo sapiens; details: Homo sapiens, HH
Description: SANGER: Inhibition of human HH cell growth in a cell viability assay.

[14] = system: IST-SL1; type: functional, cell-based, Homo sapiens; details: Homo sapiens, IST-SL1;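 note: growth inhibition of human IST-SL1 cells, read out with a cell viability assay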
Description: SANGER: Inhibition of human IST-SL1 cell growth in a cell viability assay.

[15] = system: JVM-2; type: functional, cell-based, Homo sapiens; details: Homo sapiens, JVM-2;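 note: growth inhibition of JVM-2 cells determined by a cell viability assay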
Description: SANGER: Inhibition of human JVM-2 cell growth in a cell viability assay.

[16] = system: JVM-3; type: functional, cell-based, Homo sapiens; details: Homo sapiens, JVM-3;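 note: growth inhibition of human JVM-3 cells, read out with a cell viability assay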
Description: SANGER: Inhibition of human JVM-3 cell growth in a cell viability assay.

[17] = system: K5; type: functional, cell-based, Homo sapiens; details: Homo sapiens, K5
Description: SANGER: Inhibition of human K5 cell growth in a cell viability assay.

[18] = system: KALS-1; type: functional, cell-based, Homo sapiens; details: Homo sapiens, KALS-1;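 note: growth inhibition of KALS-1 cells, determined with a cell viability assay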
Description: SANGER: Inhibition of human KALS-1 cell growth in a cell viability assay.

[19] = system: KARPAS-45; type: functional, cell-based, Homo sapiens; details: Homo sapiens, KARPAS-45;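 note: inhibition of cell line growth, read out through a viability assay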
Description: SANGER: Inhibition of human KARPAS-45 cell growth in a cell viability assay.

[20] = system: KGN; type: functional, cell-based, Homo sapiens; details: Homo sapiens, KGN;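 note: growth inhibition of KGN cells, read out with a cell viability assay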
Description: SANGER: Inhibition of human KGN cell growth in a cell viability assay.

[21] = system: KNS-42; type: functional, cell-based, Homo sapiens; details: Homo sapiens, KNS-42;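 note: growth inhibition of KNS-42 cells, read out with a cell viability assay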
Description: SANGER: Inhibition of human KNS-42 cell growth in a cell viability assay.

[22] = system: LAMA-84; type: functional, cell-based, Homo sapiens; details: Homo sapiens, LAMA-84;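 note: growth inhibition of LAMA-84 cells, read out with a cell viability assay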
Description: SANGER: Inhibition of human LAMA-84 cell growth in a cell viability assay.

[23] = system: LB2518-MEL; type: functional, cell-based, Homo sapiens; details: Homo sapiens, LB2518-MEL;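 note: growth inhibition of human LB2518-MEL cells, measured with a cell viability assay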
Description: SANGER: Inhibition of human LB2518-MEL cell growth in a cell viability assay.

[24] = system: LB771-HNC; type: functional, cell-based, Homo sapiens; details: Homo sapiens, LB771-HNC;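 note: growth inhibition of LB771-HNC human cells, read out with a cell viability assay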
Description: SANGER: Inhibition of human LB771-HNC cell growth in a cell viability assay.

[25] = system: LB831-BLC; type: functional, cell-based, Homo sapiens; details: Homo sapiens, LB831-BLC;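 note: growth inhibition of LB831-BLC cells, read out with a cell viability assay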
Description: SANGER: Inhibition of human LB831-BLC cell growth in a cell viability assay.

[26] = system: LS-411N; type: functional, cell-based, Homo sapiens; details: Homo sapiens, LS-411N
[27] = system: LS-513; type: functional, cell-based, Homo sapiens; details: Homo sapiens, LS-513
Description: SANGER: Inhibition of human LS-513 cell growth in a cell viability assay.

[28] = system: MFM-223; type: functional, cell-based, Homo sapiens; details: Homo sapiens, MFM-223
Description: SANGER: Inhibition of human MFM-223 cell growth in a cell viability assay.

[29] = system: MN-60; type: functional, cell-based, Homo sapiens; details: Homo sapiens, MN-60;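 note: growth inhibition of the MN-60 cell line, determined with a cell viability assay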
Description: SANGER: Inhibition of human MN-60 cell growth in a cell viability assay.

[30] = system: MS-1; type: functional, cell-based, Homo sapiens; details: Homo sapiens, MS-1;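 note: growth inhibition of MS-1 cells, read out by cell viability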
Description: SANGER: Inhibition of human MS-1 cell growth in a cell viability assay.

[31] = system: MV4-11; type: functional, cell-based, Homo sapiens, MV-4-11; details: Homo sapiens, MV4-11;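 note: cell viability readout measuring growth inhibition of human MV-4-11 cells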
Description: SANGER: Inhibition of human MV-4-11 cell growth in a cell viability assay.

[32] = system: NCI-H1355; type: functional, cell-based, Homo sapiens; details: Homo sapiens, NCI-H1355;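 note: growth inhibition of human NCI-H1355 cells, read out by a cell viability assay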
Description: SANGER: Inhibition of human NCI-H1355 cell growth in a cell viability assay.

[33] = system: NCI-H526; type: functional, cell-based, Homo sapiens; details: Homo sapiens, NCI-H526;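 note: growth inhibition of the human NCI-H526 cell line, measured by a cell viability assay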
Description: SANGER: Inhibition of human NCI-H526 cell growth in a cell viability assay.

[34] = system: NCI-N87; type: functional, cell-based, Homo sapiens; details: Homo sapiens, NCI-N87;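 note: growth inhibition of human NCI-N87 cells, read out with a cell viability assay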
Description: SANGER: Inhibition of human NCI-N87 cell growth in a cell viability assay.

[35] = system: NMC-G1; type: functional, cell-based, Homo sapiens; details: Homo sapiens, NMC-G1;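 note: growth inhibition of the NMC-G1 cell line, measured with a cell viability read-out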
Description: SANGER: Inhibition of human NMC-G1 cell growth in a cell viability assay.

[36] = system: OMC-1; type: functional, cell-based, Homo sapiens; details: Homo sapiens, OMC-1;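 note: growth inhibition of the OMC-1 cell line, measured by a cell viability assay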
Description: SANGER: Inhibition of human OMC-1 cell growth in a cell viability assay.

[37] = system: P30-OHK; type: functional, cell-based, Homo sapiens; details: Homo sapiens, P30-OHK;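 note: growth inhibition of the P30-OHK cell line, read out with a cell viability assay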
Description: SANGER: Inhibition of human P30-OHK cell growth in a cell viability assay.

[38] = system: RH-1; type: functional, cell-based, Homo sapiens; details: Homo sapiens, RH-1;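 note: growth inhibition of human RH-1 cells, read out with a cell viability assay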
Description: SANGER: Inhibition of human RH-1 cell growth in a cell viability assay.

[39] = system: RPMI-8226; type: functional, cell-based, Homo sapiens; details: Homo sapiens, RPMI-8226
Description: SANGER: Inhibition of human RPMI-8226 cell growth in a cell viability assay.

[40] = system: SH-4; type: functional, cell-based, Homo sapiens; details: Homo sapiens, SH-4;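 note: growth inhibition of SH-4 cells, read out with a cell viability assay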
Description: SANGER: Inhibition of human SH-4 cell growth in a cell viability assay.

[41] = system: SK-N-DZ; type: functional, cell-based, Homo sapiens; details: Homo sapiens, SK-N-DZ;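 note: growth inhibition of the cancer cell line, read out through a viability assay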
Description: SANGER: Inhibition of human SK-N-DZ cell growth in a cell viability assay.

[42] = system: SK-NEP-1; type: functional, cell-based, Homo sapiens; details: Homo sapiens, SK-NEP-1;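 note: growth inhibition of human SK-NEP-1 cells, read out by a cell viability assay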
Description: SANGER: Inhibition of human SK-NEP-1 cell growth in a cell viability assay.

[43] = system: SNU-C2B; type: functional, cell-based, Homo sapiens; details: Homo sapiens, SNU-C2B;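 note: cell viability readout used to measure compound-driven suppression of SNU-C2B cell proliferation, IC50 marking half-maximal growth inhibition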
Description: SANGER: Inhibition of human SNU-C2B cell growth in a cell viability assay.

[44] = system: ALL-PO; type: functional, cell-based, Homo sapiens; details: Homo sapiens, ALL-PO;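 note: growth inhibition of ALL-PO cells, read out by a cell viability assay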
Description: SANGER: Inhibition of human ALL-PO cell growth in a cell viability assay.

[45] = system: ATN-1; type: functional, cell-based, Homo sapiens; details: Homo sapiens, ATN-1;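 note: growth inhibition of human ATN-1 cells, read out with a cell viability assay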
Description: SANGER: Inhibition of human ATN-1 cell growth in a cell viability assay.

[46] = system: BV-173; type: functional, cell-based, Homo sapiens; details: Homo sapiens, BV-173
Description: SANGER: Inhibition of human BV-173 cell growth in a cell viability assay.

[47] = system: C2BBe1; type: functional, cell-based, Homo sapiens; details: Homo sapiens, C2BBe1;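 note: growth inhibition of C2BBe1 cells, read out through a viability assay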
Description: SANGER: Inhibition of human C2BBe1 cell growth in a cell viability assay.

[48] = system: CAS-1; type: functional, cell-based, Homo sapiens; details: Homo sapiens, CAS-1;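 note: growth inhibition of CAS-1 cells, measured with a cell viability assay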
Description: SANGER: Inhibition of human CAS-1 cell growth in a cell viability assay.

N#Cc1c(O)c2c(-c3ccc(-c4ccccc4O)cc3)csc2[nH]c1=O
IC50 [1]: > 1020 nM
IC50 [2]: 228 nM
IC50 [3]: > 1020 nM
IC50 [4]: 245 nM
IC50 [5]: 344 nM
IC50 [6]: > 1020 nM
IC50 [7]: > 1020 nM
IC50 [8]: > 1020 nM
IC50 [9]: > 1020 nM
IC50 [10]: > 1020 nM
IC50 [11]: > 1020 nM
IC50 [12]: > 1020 nM
IC50 [13]: 458 nM
IC50 [14]: > 1020 nM
IC50 [15]: > 1020 nM
IC50 [16]: > 1020 nM
IC50 [17]: > 1020 nM
IC50 [18]: > 1020 nM
IC50 [19]: 170 nM
IC50 [20]: > 1020 nM
IC50 [21]: > 1020 nM
IC50 [22]: 308 nM
IC50 [23]: > 1020 nM
IC50 [24]: > 1020 nM
IC50 [25]: > 1020 nM
IC50 [26]: > 1020 nM
IC50 [27]: > 1020 nM
IC50 [28]: > 1020 nM
IC50 [29]: 346 nM
IC50 [30]: 827 nM
IC50 [31]: 22.7 nM
IC50 [32]: > 1020 nM
IC50 [33]: 468 nM
IC50 [34]: > 1020 nM
IC50 [35]: > 1020 nM
IC50 [36]: > 1020 nM
IC50 [37]: 993 nM
IC50 [38]: > 1020 nM
IC50 [39]: 246 nM
IC50 [40]: > 1020 nM
IC50 [41]: 802 nM
IC50 [42]: 185 nM
IC50 [43]: > 1020 nM
IC50 [44]: 57.9 nM
IC50 [45]: 499 nM
IC50 [46]: > 1020 nM
IC50 [47]: > 1020 nM
IC50 [48]: 193 nM

Nc1ccn([C@@H]2O[C@H](CO)[C@@H](O)C2(F)F)c(=O)n1 [GEMCITABINE]
IC50 [1]: > 1020 nM
IC50 [2]: < 4 nM
IC50 [3]: > 1020 nM
IC50 [4]: 196 nM
IC50 [5]: 160 nM
IC50 [6]: 44.6 nM
IC50 [7]: 8.08 nM
IC50 [8]: 434 nM
IC50 [9]: < 4 nM
IC50 [10]: 580 nM
IC50 [11]: 6.34 nM
IC50 [12]: 12.4 nM
IC50 [13]: 35.1 nM
IC50 [14]: 197 nM
IC50 [15]: > 1020 nM
IC50 [16]: > 1020 nM
IC50 [17]: 683 nM
IC50 [18]: 21.4 nM
IC50 [19]: > 1020 nM
IC50 [20]: < 4 nM
IC50 [21]: 736 nM
IC50 [22]: 115 nM
IC50 [23]: 64.5 nM
IC50 [24]: > 1020 nM
IC50 [25]: 41.9 nM
IC50 [26]: 29.9 nM
IC50 [27]: 888 nM
IC50 [28]: > 1020 nM
IC50 [29]: > 1020 nM
IC50 [30]: 46.3 nM
IC50 [31]: < 4 nM
IC50 [32]: < 4 nM
IC50 [33]: 110 nM
IC50 [34]: 333 nM
IC50 [35]: 8.76 nM
IC50 [36]: 583 nM
IC50 [37]: 1.46 nM
IC50 [38]: < 4 nM
IC50 [39]: 16 nM
IC50 [40]: 9.02 nM
IC50 [41]: 86.6 nM
IC50 [42]: 22.9 nM
IC50 [43]: > 1020 nM
IC50 [44]: < 4 nM
IC50 [45]: < 4 nM
IC50 [46]: 17.3 nM
IC50 [47]: > 1020 nM
IC50 [48]: 955 nM

C=C(c1ccc(C(=O)O)cc1)c1cc2c(cc1C)C(C)(C)CCC2(C)C [BEXAROTENE]
IC50 [1]: > 8000 nM
IC50 [2]: > 8000 nM
IC50 [3]: > 8000 nM
IC50 [4]: > 8000 nM
IC50 [5]: > 8000 nM
IC50 [6]: > 8000 nM
IC50 [7]: > 8000 nM
IC50 [8]: > 8000 nM
IC50 [9]: 485 nM
IC50 [10]: > 8000 nM
IC50 [11]: > 8000 nM
IC50 [12]: > 8000 nM
IC50 [13]: > 8000 nM
IC50 [14]: > 8000 nM
IC50 [15]: > 8000 nM
IC50 [16]: > 8000 nM
IC50 [17]: > 8000 nM
IC50 [18]: > 8000 nM
IC50 [20]: > 8000 nM
IC50 [21]: > 8000 nM
IC50 [22]: > 8000 nM
IC50 [23]: > 8000 nM
IC50 [24]: 2500 nM
IC50 [25]: > 8000 nM
IC50 [26]: > 8000 nM
IC50 [27]: > 8000 nM
IC50 [28]: > 8000 nM
IC50 [29]: > 8000 nM
IC50 [30]: > 8000 nM
IC50 [31]: 453 nM
IC50 [32]: > 8000 nM
IC50 [33]: > 8000 nM
IC50 [34]: > 8000 nM
IC50 [35]: > 8000 nM
IC50 [36]: > 8000 nM
IC50 [37]: > 8000 nM
IC50 [38]: > 8000 nM
IC50 [39]: > 8000 nM
IC50 [40]: 5310 nM
IC50 [41]: > 8000 nM
IC50 [42]: > 8000 nM
IC50 [43]: > 8000 nM
IC50 [44]: 5860 nM
IC50 [45]: 3340 nM
IC50 [46]: > 8000 nM
IC50 [47]: > 8000 nM
IC50 [48]: > 8000 nM
